Laboratory results as given in patent US10570184B2, “GLP-1/glucagon receptor co-agonists for medical use” (Novo Nordisk A/S, priority 2014, dated 2020).
Starred links: 1 amine or outer side, 2 acyl side, 3 side chain; linkers in the order of their positions; H or OH if unused. Non-standard residues stand in square brackets, D forms with d. Residues, ends and D or L forms follow the SMILES beside them. Groups on a side chain read outwards from the residue. *: point of attachment. C18 diacid = O=C(O)CCCCCCCCCCCCCCCCC(=O)*; γGlu = O=C(O)[C@H](CCC(=O)[*:2])N[*:1]; AEEA = NCCOCCOCC(=O)O; Aib = CC(C)(N)C(=O)O

What was measured:
human GLP-1 receptor = target: T1, human GLP-1 receptor (Homo sapiens, UniProt P43220); experiment: Assay (I)(a) GLP-1 receptor activation, CRE luciferase reporter gene assay in BHK cells; type: cell-based; conditions: without presence of serum albumin; read-out: GLP-1R EC50 (pM) [Assay (I)(a)]
T1 construct: expressed in transfected cells; host or cells: membranes of BHK cells (parent BHKTS13), clone FCW467-12A
T1 sequence (P43220 24-463): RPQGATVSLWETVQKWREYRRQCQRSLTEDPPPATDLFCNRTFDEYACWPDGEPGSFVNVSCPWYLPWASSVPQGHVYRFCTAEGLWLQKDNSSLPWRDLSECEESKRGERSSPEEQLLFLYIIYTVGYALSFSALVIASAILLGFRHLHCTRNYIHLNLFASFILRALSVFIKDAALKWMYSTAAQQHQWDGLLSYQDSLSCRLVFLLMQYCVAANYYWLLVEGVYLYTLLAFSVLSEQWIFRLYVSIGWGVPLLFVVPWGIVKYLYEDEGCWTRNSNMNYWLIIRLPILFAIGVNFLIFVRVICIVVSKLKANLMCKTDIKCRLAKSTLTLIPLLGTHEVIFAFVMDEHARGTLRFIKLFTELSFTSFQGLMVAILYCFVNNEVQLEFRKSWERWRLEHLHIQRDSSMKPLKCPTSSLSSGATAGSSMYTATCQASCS
In short: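 Stable BHK clone expressing human GLP-1 receptor with CRE-driven firefly luciferase, 5×10EE3 cells/well in medium with 2% ovalbumin and 0.2% Pluronic F-68. Compounds at 1×10EE-13 to 1×10EE-6 M final, 3 h at 37° C.; luminescence read, EC50 (pM) from four-parameter fit.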

[1] = Assay (III) ThT fibrillation assay for physical stability; type: physicochemical; conditions: 250 μM in 10 mM HEPES buffer, 37° C., shaking 960 rpm
In short: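 Glucagon derivative at 250 μM in 10 mM HEPES pH 7.5 with 1 μM ThT was incubated at 37 °C under 960 rpm orbital shaking. Fluorescence (ex 444/em 485 nm) was read every 20 min and fitted for lag time (t0−2τ) and kapp (1/τ). Recovery was soluble peptide after centrifugation/filtration, by RP-HPLC, as percent of initial.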

CC[C@H](C)[C@H](NC(=O)[C@H](CC(C)C)NC(=O)[C@H](Cc1c[nH]c2ccccc12)NC(=O)[C@H](C)NC(=O)[C@@H](NC(=O)[C@H](Cc1ccccc1)NC(=O)[C@H](CC(=O)O)NC(=O)[C@H](CCCNC(=N)N)NC(=O)[C@H](C)NC(=O)[C@H](CCCNC(=N)N)NC(=O)[C@H](CCCNC(=N)N)NC(=O)[C@H](CC(C)C)NC(=O)[C@H](CC(=O)O)NC(=O)[C@H](CC(C)C)NC(=O)[C@H](Cc1ccc(O)cc1)NC(=O)[C@H](CCCCN)NC(=O)[C@H](CO)NC(=O)[C@H](Cc1ccc(O)cc1)NC(=O)[C@H](CC(=O)O)NC(=O)[C@H](CO)NC(=O)[C@@H](NC(=O)[C@H](Cc1ccccc1)NC(=O)[C@@H](NC(=O)CNC(=O)[C@H](CCC(N)=O)NC(=O)C(C)(C)NC(=O)[C@@H](N)Cc1c[nH]cn1)[C@@H](C)O)[C@@H](C)O)C(C)C)C(=O)N[C@@H](CCCCNC(=O)CC[C@H](NC(=O)CC[C@H](NC(=O)COCCOCCNC(=O)COCCOCCNC(=O)CC[C@H](NC(=O)CCCCCCCCCCCCCCCCC(=O)O)C(=O)O)C(=O)O)C(=O)O)C(=O)N[C@H](C(N)=O)[C@@H](C)O [Chem. 33, N^ε28-[(4S)-4-carboxy-4-[[(4S)-4-carboxy-4-[[2-[2-[2-[[2-[2-[2-[[(4S)-4-carboxy-4-(17-carboxyheptadecanoylamino)butanoyl]amino]ethoxy]ethoxy]acetyl]amino]ethoxy]ethoxy]acetyl]amino]butanoyl]amino]butanoyl]-[Aib2,Leu16,Arg20,Ala24,Ile27,Lys28]-Glucagon amide] (H-H[Aib]QGTFTSDYSKYLDLRRARDFVAWLIK([γGlu-γGlu-AEEA-AEEA-γGlu-C18 diacid])T-NH2)
EC50 (human GLP-1 receptor): 7 pM | ThT Assay Lag time (h) [Assay (III), pH 7.5] [1]: 45.0 h
